Results taken from patent US8604042B2, “Bi-aryl meta-pyrimidine inhibitors of kinases” (TargeGen, Inc., priority 2005, dated 2013).
Counter-ions that a name gives are not always drawn.

Molecular target: T1, recombinant JAK2 (Homo sapiens, UniProt O60674)
T1 construct: purchased Upstate Cell Signaling Solutions
Assay: IC50 value determinations for Jak2 kinase, luminescence-based kinase assay (Kinase-Glo)
Type: biochemical
Settings: Table 1

T1 sequence (O60674 808-1132 limits assumed): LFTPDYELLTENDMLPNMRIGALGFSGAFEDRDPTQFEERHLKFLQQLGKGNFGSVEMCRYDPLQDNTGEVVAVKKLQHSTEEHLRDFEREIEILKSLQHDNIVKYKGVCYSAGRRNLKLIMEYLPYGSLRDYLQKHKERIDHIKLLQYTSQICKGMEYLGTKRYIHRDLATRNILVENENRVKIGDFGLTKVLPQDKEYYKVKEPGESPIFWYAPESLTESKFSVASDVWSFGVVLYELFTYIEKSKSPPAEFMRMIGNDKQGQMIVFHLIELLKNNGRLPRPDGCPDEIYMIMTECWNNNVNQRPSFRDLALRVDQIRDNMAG

| Structure (SMILES) | IC50 [nM] |
| --- | --- |
| Cc1cnc(Nc2ccc(-c3nnn[nH]3)cc2)nc1Nc1cccc(S(=O)(=O)NC(C)(C)C)c1 [N-tert-Butyl-3-{5-methyl-2-[4-(1H-tetrazol-5-yl)-phenylamino]-pyrimidin-4-ylamino}-benzenesulfonamide] | 96.7 |
| Cc1cnc(Nc2ccc(N3CCN(C)CC3)cc2)nc1Nc1cccc(S(=O)(=O)N2CCCC2)c1 [5-Methyl-N2-[4-(4-methyl-piperazin-1-yl)-phenyl]-N4-[3-(pyrrolidine-1-sulfony)-phenyl]-pyrimidine-2,4-diamine Hydrochloride] | 17.1 |
| COc1cccc(Nc2ccnc(Nc3ccc(OCCN4CCCC4)cc3)n2)c1C [N4-(3-Methoxy-2-methyl-phenyl)-N2-[4-(2-pyrrolidin-1-yl-ethoxy)-phenyl]-pyrimidine-2,4-diamine] | 371 |
| Cc1cnc(Nc2ccc(N3CCN(C)CC3)cc2)nc1Nc1cccc(S(=O)(=O)NC2CCCC2)c1 [N-Cyclopentyl3-{5-Methyl-2-[4-(4-methyl-piperazin-1-yl)-phenylamino]-pyrimidine-4-ylamino}-benzenesulfonamide Hydrochloride] | 19.8 |
| Cc1cnc(Nc2ccc(OCCN3CCCC3)cc2)nc1Nc1ccc(C(F)(F)F)cc1 [N2-(4-(2-(pyrrolidin-1-yl)ethoxy)phenyl)-N4-(4-(trifluoromethyl)phenyl)-5-methylpyrimidine-2,4-diamine hydrochloride] | 39.8 |
| Cc1cnc(Nc2ccc(N3CCN(C)CC3)cc2)nc1Nc1cccc(S(=O)(=O)NC2CCNCC2)c1 [3-{5-Methyl-2-[4-(4-methyl-piperazin-1-yl)-phenylamino]-pyrimidin-4-ylamino}-N-piperidin-4-yl-benzenesulfonamide] | 543 |
| CC(=O)N1CCN(c2ccc(Nc3ncc(C)c(Nc4cccc(S(=O)(=O)NC(C)(C)C)c4)n3)cc2C(F)(F)F)CC1 [3-[(2-{[4-(4-acetylpiperazin-1-yl)-3-(trifluoromethyl)phenyl]amino}-5-methylpyrimidin-4-yl)amino]-N-tert-butylbenzenesulfonamide] | 35.7 |
| Cc1cnc(Nc2cccc(N3CCN(CCO)CC3)c2)nc1Nc1cccc(S(=O)(=O)NC(C)(C)C)c1 [N-tert-Butyl-3-(2-{3-[4-(2-hydroxy-ethyl)-piperazin-1-yl]-phenylamino}-[5-methyl-pyrimidin-4-ylamino]-benzenesulfonamide Hydrochloride] | 40.5 |
| COc1cc(Nc2nc(Nc3cccc(OCCN4CCCC4)c3)ncc2C#N)c(Cl)cc1Cl [drawing 299, 4-(2,4-Dichloro-5-methoxy-phenylamino)-2-[3-(2-pyrrolidin-1-yl-ethoxy)-phenylamino]-pyrimidine-5-carbonitrile] | 10500 |
| Cc1cnc(Nc2ccc(OCCN3CCCC3)cc2)nc1Nc1ccc(Cl)c2[nH]ccc12 [N2-(4-(2-(pyrrolidin-1-yl)ethoxy)phenyl)-N4-(7-chloro-1H-indol-4-yl)-5-methylpyrimidine-2,4-diamine Hydrochloride] | 1.16 |
| Cc1ccc(Nc2nc(Nc3ccc(OCCN4CCCC4)cc3)ncc2C)cc1 [N2-(4-(2-(pyrrolidin-1-yl)ethoxy)phenyl)-5-methyl-N4-p-tolylpyrimidine-2,4-diamine Hydrochloride] | 35.7 |
| Cc1cnc(Nc2ccc(OCCN3CCCC3)cc2)nc1Nc1cccc(Cl)c1 [N4-(3-Chloro-phenyl)-5-methyl-N2-[4-(2-pyrrolidin-1-yl-ethoxy)-phenyl]-pyrimidine-2,4-diamine] | 20.8 |
| Cc1cc(Nc2nc(Nc3ccc(OC4CCNCC4)cc3)ncc2C)ccc1Cl [N4-(4-Chloro-3-methyl-phenyl)-5-methyl-N2-[4-(piperidin-4-yloxy)-phenyl]-pyrimidine-2,4-diamine] | 8.41 |
| Cc1cnc(Nc2ccc(OC3CCNCC3)cc2)nc1Nc1cccc(C(=O)N2CCCC2)c1 [(3-{5-Methyl-2-[4-(piperidin-4-yloxy)-phenylamino]-pyrimidin-4-ylamino}-phenyl)-pyrrolidin-1-yl-methanone] | 113 |
| COc1cc(Nc2nc(Nc3ccc(N4CCOCC4)cc3)ncc2C)ccc1Cl [N4-(4-Chloro-3-methoxy-phenyl)-5-methyl-N2-(4-morpholin-4-yl-phenyl)-pyrimidine-2,4-diamine] | 130 |
| COc1cc(Nc2nc(Nc3ccc(OC4CCNCC4)cc3)ncc2C)cc(OC)c1 [N4-(3,5-dimethoxyphenyl)-5-methyl-N2-(4-(piperidin-4-yloxy)phenyl)pyrimidine-2,4-diamine trifluoroacetate] | 137 |
| Cc1cnc(Nc2ccc(OCCN3CCCC3)cc2)nc1Nc1cccc2ccccc12 [N2-(4-(2-(pyrrolidin-1-yl)ethoxy)phenyl)-5-methyl-N4-(naphthalen-1-yl)pyrimidine-2,4-diamine Hydrochloride] | 20 |

The remaining lines, values ahead:

| IC50 [nM] | Structure (SMILES) |
| --- | --- |
| 69 | Cc1cnc(Nc2ccc(C(=O)N3CCNCC3)cc2)nc1Nc1cccc(S(=O)(=O)NC(C)(C)C)c1 [N-tert-Butyl-3-{5-methyl-2-[4-(piperazine-1-carbonyl)-phenylamino]-pyrimidin-4-ylamino}-benzenesulfonamide] |
| 20.9 | Cc1cnc(Nc2ccc(C3CCNCC3)cc2)nc1Nc1cccc(C(C)(C)C)c1 [N4-(3-tert-butylphenyl)-5-methyl-N2-(4-(piperidin-4-yl)phenyl)pyrimidine-2,4-diamine Hydrochloride] |
| 127 | CNS(=O)(=O)c1cc(Nc2nc(Nc3ccc(OCCN4CCCC4)cc3)ncc2C)ccc1C [2,N-Dimethyl-5-{5-methyl-2-[4-(2-pyrrolidin-1-yl-ethoxy)-phenylamino]-pyrimidin-4-ylamino}-benzenesulfonamide] |
| 16.4 | COC(=O)c1cc(Nc2ncc(C)c(Nc3cccc4c3OCO4)n2)ccc1OCCN1CCCC1 [5-[4-(Benzo[1,3]dioxol-4-ylamino)-5-methyl-pyrimidin-2-ylamino]-2-(2-pyrrolidin-1-yl-ethoxy)-benzoic acid methyl ester] |
| 6.15 | COc1cc(Nc2nc(Nc3ccc(N4CCNCC4)cc3)ncc2C)ccc1Cl [drawing 348, N4-(4-Chloro-3-methoxy-phenyl)-5-methyl-N2-(4-piperazin-1-yl-phenyl)-pyrimidine-2,4-diamine] |
| 32.9 | Cc1cnc(Nc2ccc(C(=O)N3CCOCC3)cc2)nc1Nc1cccc(S(=O)(=O)NC(C)(C)C)c1 [N-tert-Butyl-3-{5-methyl-2-[4-(morpholine-4-carbonyl)-phenylamino]-pyrimidin-4-ylamino}-benzenesulfonamide] |
| 18 | Cc1cnc(Nc2cccc(N3CCNCC3)c2)nc1Nc1cccc(S(=O)(=O)NC(C)(C)C)c1 [N-tert-Butyl-3-[5-methyl-2-(3-piperazin-1-yl-phenylamino)-pyrimidin-4-ylamino]-benzenesulfonamide Hydrochloride] |
| 4.7 | Cc1cnc(Nc2ccc(N3CCN(C)CC3)cc2)nc1Nc1cccc(C(C)(C)C)c1 [N4-(3-tert-butylphenyl)-5-methyl-N2-(4-(4-methylpiperazin-1-yl)phenyl)pyrimidine-2,4-diamine Hydrochloride] |
| 7.59 | Cc1cnc(Nc2ccc(N3CCNCC3)cc2)nc1Nc1cccc(S(=O)(=O)NC(C)(C)C)c1 [N-tert-Butyl-3-[5-methyl-2-(4-piperazin-1-yl-phenylamino)-pyrimidin-4-ylamino]-benzenesulfonamide Hydrochloride] |
| 10 | Cc1cnc(Nc2ccc(N3CCNCC3)nc2)nc1Nc1cccc(S(=O)(=O)NC(C)(C)C)c1 [N-tert-Butyl-3-[5-methyl-2-(6-piperazin-1-yl-pyridin-3-ylamino)-pyrimidin-4-ylamino]-benzenesulfonamide] |
